pIC50: −log10 of the molar value.

Experimental findings from patent US11084800B2 (Achillion Pharmaceuticals, Inc., priority 2017, dated 2021) are described below.

Human Factor D, sequence (P00746 26-253): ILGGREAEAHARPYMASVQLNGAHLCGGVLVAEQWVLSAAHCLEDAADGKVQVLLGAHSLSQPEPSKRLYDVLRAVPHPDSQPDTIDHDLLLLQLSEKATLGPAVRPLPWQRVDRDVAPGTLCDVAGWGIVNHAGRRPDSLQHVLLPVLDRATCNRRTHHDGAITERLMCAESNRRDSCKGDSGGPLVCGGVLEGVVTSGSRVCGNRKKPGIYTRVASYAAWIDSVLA

One experiment addresses Human Factor D (Homo sapiens (Human), UniProt P00746). As to the kind of experiment: Human Factor D Assay. In kind it is biochemical. Particulars: Factor D inhibition, assay of Example 10; read-out: IC5 (Stars). The procedure, abridged: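 Thioester substrate Z-L-Lys-SBz (100 μM) with Ellman's reagent DTNB (100 μM) reports activity of 80 nM human serum-derived enzyme, kinetically at 405 nm over 30 min. Compound preincubated 5 min, room temperature, pH 7.5 Tris/1 M NaCl; IC50 by nonlinear fit of rates.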
For the molecule `CC(=O)c1nn(CC(=O)N2[C@H](C(=O)Nc3nc(Br)ccc3C)C[C@@]3(CN4C[C@H]5CCC[C@H]5C4)C[C@@H]23)c2cnc(-c3cnc(C)nc3)cc12` [Compound 245, (1R,3S,5R)-2-(2-(3-acetyl-5-(2-methylpyrimidin-5-yl)-1H-pyrazolo[3,4-c]pyridin-1-yl)acetyl)-N-(6-bromo-3-methylpyridin-2-yl)-5-(((3aR,6a5)-hexahydrocyclopenta [c]pyrrol-2(1H)-yl)methyl)-2-azabicyclo[3.1.0]hexane-3-carboxamide], the pIC50 was over 6.00. For `CC(=O)c1nn(CC(=O)N2[C@H](C(=O)Nc3nc(Br)ccc3C)C[C@@]3(CN4CC5(CCCC5)C4)C[C@@H]23)c2cnc(-c3cnc(C)nc3)cc12` [Compound 246, (1R,3S,5R)-5-(2-azaspiro[3.4]octan-2-ylmethyl)-2-(2-(3-acetyl-5-(2-methylpyrimidin-5-yl)-1H-pyrazolo[3,4-c]pyridin-1-yl)acetyl)-N-(6-bromo-3-methylpyridin-2-yl)-2-azabicyclo[3.1.0]hexane-3-carboxamide], the pIC50 is over 6.00.

Turning to `CC(=O)c1nn(CC(=O)N2[C@H](C(=O)Nc3nc(Br)c(F)cc3C)C[C@@]3(CC#N)C[C@@H]23)c2cnc(-c3cnc(C)nc3)cc12` [Compound 249, (1R,3S,5R)-2-(2-(3-acetyl-5-(2-methylpyrimidin-5-yl)-1H-pyrazolo[3,4-c]pyridin-1-yl)acetyl)-N-(6-bromo-5-fluoro-3-methylpyridin-2-yl)-5-(cyanomethyl)-2-azabicyclo[3.1.0]hexane-3-carboxamide], the pIC50 was over 6.00. The same measure, in the same setting: the same measure for `CC(=O)c1nn(CC(=O)N2[C@H](C(=O)Nc3nc(Br)c(F)cc3C)C[C@@]3(CN4CC(F)(F)C4)C[C@@H]23)c2cnc(-c3cnc(C)nc3)cc12` [Compound 250, (1R,3S,5R)-2-(2-(3-acetyl-5-(2-methylpyrimidin-5-yl)-1H-pyrazolo[3,4-c]pyridin-1-yl)acetyl)-N-(6-bromo-5-fluoro-3-methylpyridin-2-yl)-5-((3,3-difluoroazetidin-1-yl)methyl)-2-azabicyclo[3.1.0]hexane-3-carboxomide]: over 6.00; for `CC(=O)c1nn(CC(=O)N2[C@H](C(=O)Nc3nc(Br)c(F)cc3C)C[C@@]3(CF)C[C@@H]23)c2cnc(-c3cnc(C)nc3)cc12` [Compound 251]: over 6.00; for `CC(=O)c1nn(CC(=O)N2[C@H](C(=O)Nc3nc(Br)c(F)cc3C)C[C@@]3(CN4CC5(CCCC5)C4)C[C@@H]23)c2cnc(-c3cnc(C)nc3)cc12` [Compound 252, (1R,3S,5R)-5-(2-azaspirp[3.4]octan-2-ylmethyl)-2-(2-(3-acetyl-5-(2-methylpyrimidin-5-yl)-1H-pyrazole[3,4-c]pyridin-1-yl)acetyl)-N-(6-bromo-5-fluoro-3-methylpyridin-2-yl)-2-azabicyclo[3.1.0]hexane-3-carboxomide]: over 6.00.

As to `CC(=O)c1nn(CC(=O)N2[C@H](C(=O)Nc3nc(Br)c(F)cc3C)C[C@@]3(CN4C[C@H]5CCC[C@H]5C4)C[C@@H]23)c2cnc(-c3cnc(C)nc3)cc12` [Compound 253, (1R,3S,5R)-2-(2-(3-acetyl-5-(2-methylpyrimidin-5-yl)-1H-pyrazolo[3,4-c]pyridin-1-yl)acetyl)-N-(6-bromo-5-fluoro-3-methylpyridin-2-yl)-5-(((3aR,6aS)-hexahydrocyclopenta [c]pyrrol-2(1H)-yl)methyl)-2-azabicyclo[3.1.0]hexane-3-carboxamide], the pIC50 is over 6.00. For the molecule `CC(=O)c1nn(CC(=O)N2[C@H](C(=O)Nc3nc(Br)c(F)cc3C)C[C@@]3(C)C[C@@H]23)c2cnc(-c3cnc(C)[n+]([O-])c3)cc12` [Compound 254, 5-(3-acetyl-1-(2-((1R,3S,5R)-3-((6-bromo-5-fluoro-3-methylpyridin-2-yl)carbamoyl)-5-methyl-2-azabicyclo[3.1.0]hexane-2-yl)-2-oxoethyl)-1H-pyrazolo[3,4-c]pyridin-5-yl)-2-methylpyrimidine 1-oxide], the pIC50 was over 6.00.

Regarding `CC(=O)c1nn(CC(=O)N2[C@H](C(=O)Nc3nc(OC(F)(F)F)ccc3C)C[C@@]3(C)C[C@@H]23)c2cnc(-c3cnc(C)nc3)cc12` [Compound 256], the pIC50 was over 6.00.

Consider `CC(=O)c1nn(CC(=O)N2[C@H](C(=O)Nc3nc(Br)ccc3CC(C)C)C[C@@]3(C)C[C@@H]23)c2cnc(-c3cnc(C)nc3)cc12` [Compound 258, (1R,3S,5R)-2-(2-(3-acetyl-5-(2-methylpyrimidin-5-yl)-1H-pyrazolo[3,4-c]pyridin-1-yl)acetyl)-N-(6-bromo-3-isobutylpyridin-2-yl)-5-methyl-2-azabicyclo[3.1.0]hexane-3-carboxamide], for which the pIC50 was over 6.00. `CC(=O)c1nn(CC(=O)N2[C@H](C(=O)Nc3nc(Br)ccc3C)C[C@@]3(CN(CCO)CCO)C[C@@H]23)c2cnc(-c3cnc(C)nc3)cc12` [Compound 262, (1R,3S,5R)-2-(2-(3-acetyl-5-(2-methylpyrimidin-5-yl)-1H-pyrazolo[3,4-c]pyridin-1-yl)acetyl)-5-((bis(2-hydroxyethyl)amino)methyl)-N-(6-bromo-3-methylpyridin-2-yl)-2-azabicyclo[3.1.0] hexane-3-carboxamide]: the pIC50 was over 6.00. For `CC(=O)c1nn(CC(=O)N2[C@H](C(=O)Nc3nc(Br)c(F)cc3C)C[C@@]3(CN(C)C)C[C@@H]23)c2c(C)cc(-c3cnc(C)nc3)cc12` [Compound 263, (1R,3S,5R)-2-(2-(3-acetyl-7-methyl-5-(2-methylpyrimidin-5-yl)-1H-indazol-1-yl)acetyl)-N-(6-bromo-5-fluoro-3-methylpyridin-2-yl)-5-((dimethylamino)methyl)-2-azabicyclo[3.1.0] hexane-3-carboxamide], the pIC50 is over 6.00. As for `CC(=O)c1nn(CC(=O)N2[C@H](C(=O)Nc3nc(Br)c(F)cc3C)C[C@@]3(CN(C)C)C[C@@H]23)c2cnc(-c3cnc(C)nc3)cc12` [Compound 264, (1R,3S,5R)-2-(2-(3-acetyl-5-(2-methylpyrimidin-5-yl)-1H-pyrazolo[3,4-c]pyridin-1-yl)acetyl)-N-(6-bromo-5-fluoro-3-methylpyridin-2-yl)-5-((dimethylamino)methyl)-2-azabicyclo[3.1.0] hexane-3-carboxamide], the pIC50 was over 6.00. Still for that read-out and setting: next, `CC(=O)c1nn(CC(=O)N2[C@H](C(=O)Nc3nc(Br)c(F)cc3C)C[C@@]3(C)C[C@@H]23)c2c(C(F)(F)F)nc(-c3cnc(C)nc3)cc12` [Compound 271, (1R,3S,5R)-2-(2-(3-acetyl-5-(2-methylpyrimidin-5-yl)-7-(trifluoromethyl)-1H-pyrazolo[3,4-c]pyridin-1-yl)acetyl)-N-(6-bromo-5-fluoro-3-methylpyridin-2-yl)-5-methyl-2-azabicyclo[3.1.0]hexane-3-carboxamide]: over 6.00; `CC(=O)c1nn(CC(=O)N2[C@H](C(=O)Nc3nc(Br)ccc3CN3CC4CC3CO4)C[C@@]3(C)C[C@@H]23)c2cnc(-c3cnc(C)nc3)cc12` (stereo partly drawn) [Compound 277, (1R,3S,5R)-N-(3-(2-oxa-5-azabicyclo[2.2.1]heptan-5-ylmethyl)-6-bromopyridin-2-yl)-2-(2-(3-acetyl-5-(2-methylpyrimidin-5-yl)-1H-pyrazolo[3,4-c]pyridin-1-yl)acetyl)-5-methyl-2-azabicyclo[3.1.0]hexane-3-carboxamide]: over 6.00. Turning to `CC(=O)c1nn(CC(=O)N2[C@H](C(=O)Nc3nc(Br)ccc3C)C[C@@]3([C@H](O)CO)C[C@@H]23)c2cnc(-c3cnc(C)nc3)cc12` [Compound 282], the pIC50 was over 6.00. On the same count and under the same terms, next, `CC[C@@]12C[C@@H](C(=O)Nc3nc(Br)ccc3C)N(C(=O)Cn3nc(C(C)=O)c4cc(-c5cnc(C)nc5)ccc43)[C@@H]1C2` [Compound 286, (1R,3S,5R)-2-(2-(3-acetyl-5-(2-methylpyrimidin-5-yl)-1H-indazol-1-yl)acetyl)-N-(6-bromo-3-methylpyridin-2-yl)-5-ethyl-2-azabicyclo[3.1.0]hexane-3-carboxamide]: over 6.00.

Turning to `CC(=O)c1nn(CC(=O)N2[C@H](C(=O)Nc3nc(Br)ccc3C)C[C@@]3(CCS(C)(=N)=O)C[C@@H]23)c2c(C)cc(-c3cnc(C)nc3)cc12` (stereo partly drawn) [Compound 287, (1R,3S,5R)-2-(2-(3-acetyl-7-methyl-5-(2-methylpyrimidin-5-yl)-1H-indazol-1-yl)acetyl)-N-(6-bromo-3-methylpyridin-2-yl)-5-(2-(S-methylsulfonimidoyl)ethyl)-2-azabicyclo[3.1.0]hexane-3-carboxamide], the pIC50 was over 6.00.

For `CC(=O)c1nn(CC(=O)N2[C@H](C(=O)Nc3nc(Br)ccc3C)C[C@@]3(CCS(C)(=O)=O)C[C@@H]23)c2c(C)cc(-c3cnc(C)nc3)cc12` [Compound 288, (1R,3S,5R)-2-(2-(3-acetyl-7-methyl-5-(2-methylpyrimidin-5-yl)-1H-indazol-1-yl)acetyl)-N-(6-bromo-3-methylpyridin-2-yl)-5-(2-(methylsulfonyl)ethyl)-2-azabicyclo[3.1.0]hexane-3-carboxamide], the pIC50 is over 6.00. Same read-out and setting: the same measure for `CC(=O)c1nn(CC(=O)N2[C@H](C(=O)Nc3nc(Br)ccc3CN3C(C)(C)COCC3(C)C)C[C@@]3(C)C[C@@H]23)c2cnc(-c3cnc(C)nc3)cc12` [Compound 289, (1R,3S,5R)-2-(2-(3-acetyl-5-(2-methylpyrimidin-5-yl)-1H-pyrazolo[3,4-c]pyridin-1-yl)acetyl)-N-(6-bromo-3-((3,3,5,5-tetramethylmorpholino)methyl)pyridin-2-yl)-5-methyl-2-azabicyclo[3.1.0]hexane-3-carboxamide]: over 6.00.

The same experiment, now with this note: Table 8; Factor D 80 nM, substrate Z-L-Lys-SBz; read-out: IC50.
Turning to `C=CCCCC(=O)NC[C@@]12C[C@@H](C(=O)Nc3nc(Br)ccc3C)N(C(=O)Cn3nc(C(C)=O)c4cc(-c5cnc(C)nc5)cc(CCC=C)c43)[C@@H]1C2` [Compound 266, (1R,3S,5R)-2-(2-(3-acetyl-7-(but-3-en-l-yl)-5-(2-methylpyrimidin-5-yl)-1H-indazol-1-yl)acetyl)-N-(6-bromo-3-methylpyridin-2-yl)-5-(hex-5-enamidomethyl)-2-azabicyclo[3.1.0]hexane-3-carboxamide], the pIC50 was over 6.00.
